Measured values taken from patent US9682959B2, “Ethynyl derivatives” (Hoffmann-La Roche Inc., priority 2013, dated 2017).

Target: rat mGlu 5a receptor (Rattus norvegicus (Rat), UniProt P31424)
Assay: MPEP binding / [Ca2+]i FLIPR measurement on mGlu 5a transfected EBNA cells, antagonists tested against 10 μM glutamate
Details: rat mGlu 5a receptor transiently transfected into EBNA cells; Ki calculated from IC50
Description: The pharmacological activity of the compounds was tested using the following method: cDNA encoding rat mGlu 5a receptor was transiently transfected into EBNA cells using a procedure described by E.-J. Schlaeger and K. Christensen (Cytotechnology 1998, 15, 1-13). [Ca^2+]i measurements were performed on mGlu 5a transfected EBNA cells after incubation of the cells with Fluo 3-AM (obtainable by FLUKA, 0.5 μM final concentration) for 1 hour at 37° C. followed by 4 washes with assay buffer (DMEM supplemented with Hank's salt and 20 mM HEPES. [Ca^2+]i measurements were done using a fluorometric imaging plate reader (FLIPR, Molecular Devices Corporation, La Jolla, Calif., USA). When compounds were evaluated as antagonists they were tested against 10 μM glutamate as agonist.
The inhibition (antagonists) curves were fitted with a four parameter logistic equation giving IC50, and Hill coefficient using the iterative non linear curve fitting software Origin (Microcal Software Inc., Northampton, Mass., USA).
The Ki values of the compounds tested are given. The Ki value is defined by the following formula:
[formula] in which the IC50 values are those concentrations of the compounds tested in μM by which 50% of the effect of compounds are antagonized. [L] is the concentration and the EC50 value is the concentration of the compounds in μM which brings about 50% stimulation.
The compounds of the present invention are mGluR5 receptor antagonists.

Sequence of rat mGlu 5a receptor (P31424 other isoform, or with tags, fused parts or gaps): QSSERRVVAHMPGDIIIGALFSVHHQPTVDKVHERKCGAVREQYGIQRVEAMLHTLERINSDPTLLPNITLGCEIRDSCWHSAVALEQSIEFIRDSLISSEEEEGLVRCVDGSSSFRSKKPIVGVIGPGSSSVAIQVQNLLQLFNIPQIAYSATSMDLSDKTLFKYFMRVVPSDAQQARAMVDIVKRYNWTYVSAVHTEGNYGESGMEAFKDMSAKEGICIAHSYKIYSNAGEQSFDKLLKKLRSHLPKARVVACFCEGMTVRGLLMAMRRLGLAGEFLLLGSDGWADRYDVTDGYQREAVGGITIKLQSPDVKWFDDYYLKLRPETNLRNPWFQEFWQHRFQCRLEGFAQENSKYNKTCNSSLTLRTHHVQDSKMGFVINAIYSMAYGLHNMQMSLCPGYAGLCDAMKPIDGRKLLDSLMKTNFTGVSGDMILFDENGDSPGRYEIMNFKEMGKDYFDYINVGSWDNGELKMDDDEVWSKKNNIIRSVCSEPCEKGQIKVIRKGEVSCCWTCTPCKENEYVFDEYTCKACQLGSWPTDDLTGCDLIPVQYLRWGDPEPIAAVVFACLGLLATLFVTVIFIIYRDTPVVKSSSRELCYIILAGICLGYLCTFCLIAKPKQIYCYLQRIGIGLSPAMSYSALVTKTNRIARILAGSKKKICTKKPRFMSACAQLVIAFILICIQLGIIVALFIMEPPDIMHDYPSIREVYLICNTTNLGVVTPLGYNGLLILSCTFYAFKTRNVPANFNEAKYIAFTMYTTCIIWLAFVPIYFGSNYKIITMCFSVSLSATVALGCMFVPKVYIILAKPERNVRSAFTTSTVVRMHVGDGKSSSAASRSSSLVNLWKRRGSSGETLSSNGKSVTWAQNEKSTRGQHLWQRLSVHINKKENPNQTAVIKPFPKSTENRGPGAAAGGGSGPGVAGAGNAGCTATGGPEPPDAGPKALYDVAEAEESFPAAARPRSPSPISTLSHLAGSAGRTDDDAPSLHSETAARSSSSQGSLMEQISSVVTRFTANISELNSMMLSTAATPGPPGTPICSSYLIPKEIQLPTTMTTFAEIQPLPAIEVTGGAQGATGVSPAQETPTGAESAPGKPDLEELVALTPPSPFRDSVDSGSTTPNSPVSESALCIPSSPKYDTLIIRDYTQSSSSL

| Ki [nM] | SMILES |
| --- | --- |
| 280 | CN1C(=O)C(C)(C)N=C1c1ncc(C#Cc2cccc(F)c2)cn1 [Example 6, 2-[5-[2-(3-Fluorophenyl)ethynyl]-2-pyrimidyl]-3,5,5-trimethyl-imidazol-4-one] |
| 80 | CN1C(=O)C(C)(C)N=C1c1ncc(C#Cc2cccc(Cl)c2)cn1 [Example 4, 2-[5-[2-(3-Chlorophenyl)ethynyl]-2-pyrimidyl]-3,5,5-trimethyl-imidazol-4-one] |
| 281 | CN1C(=O)C(C)(C)N=C1c1ncc(C#Cc2ccccc2)cn1 [Example 5, 3,5,5-Trimethyl-2-[5-(2-phenylethynyl)-2-pyrimidyl]imidazol-4-one] |

Continued, compound first:

| SMILES | Ki [nM] |
| --- | --- |
| CN1C(=O)C(C)(C)N=C1c1ccc(C#Cc2cccc(Cl)c2)cn1 [Example 3, 2-[5-[2-(3-Chlorophenyl)ethynyl]-2-pyridyl]-3,5,5-trimethyl-imidazol-4-one] | 16 |
| CN1C(=O)C(C)(C)N=C1c1ccc(C#Cc2ccccc2)cn1 [Example 2, 3,5,5-Trimethyl-2-[5-(2-phenylethynyl)-2-pyridyl]imidazol-4-one] | 38 |
| CN1C(=O)C(C)(C)N=C1c1ccc(C#Cc2cccc(F)c2)cn1 [Example 1, 2-[5-[2-(3-Fluorophenyl)ethynyl]-2-pyridyl]-3,5,5-trimethyl-imidazol-4-one] | 18 |
